Columns and labels:
Assay in all cases: relative viability (nuclei count vs DMSO), 5 days (fraction); higher = more cells survive
NCI-H1793 = tested on: NCI-H1793
Summary of the method: (§1)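 Nuclei were stained with Hoechst during a one-step fixation (final 0.05% Triton X-100, 1% formaldehyde, 1 ug/ml Hoechst) carried out 5 days after dosing, then counted on 4× images. The cells, lung cancer lines in 1536-well plates, had been dosed by pin tool the day after seeding with one drug alone or a fixed anchor-drug dose plus five library-drug doses (not always all listed) in √10 steps. Relative viability is the nuclei count in treated wells divided by that in vehicle wells, and each value is the median of duplicate plates.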

NCI-H1437 = tested on: NCI-H1437
Summary of the method: as §1

HCC-366 = tested on: HCC-366
Summary of the method: as §1

NCI-H1650 = tested on: NCI-H1650
Summary of the method: as §1

NCI-H460 = tested on: NCI-H460
Summary of the method: as §1

NCI-H2023 = tested on: NCI-H2023
Summary of the method: as §1

LU99A = tested on: LU99A
Summary of the method: as §1

NCI-H441 = tested on: NCI-H441
Summary of the method: as §1

NCI-H1355 = tested on: NCI-H1355
Summary of the method: as §1

LOU-NH91 = tested on: LOU-NH91
Summary of the method: as §1

NCI-H838 = tested on: NCI-H838
Summary of the method: as §1

COR-L23 = tested on: COR-L23
Summary of the method: as §1

NCI-H1651 = tested on: NCI-H1651
Summary of the method: as §1

NCI-H1734 = tested on: NCI-H1734
Summary of the method: as §1

NCI-H1975 = tested on: NCI-H1975
Summary of the method: as §1

NCI-H358 = tested on: NCI-H358
Summary of the method: as §1

BEN = tested on: BEN
Summary of the method: as §1

CAL-12T = tested on: CAL-12T
Summary of the method: as §1

NCI-H2342 = tested on: NCI-H2342
Summary of the method: as §1

NCI-H2085 = tested on: NCI-H2085
Summary of the method: as §1

SK-LU-1 = tested on: SK-LU-1
Summary of the method: as §1

O=c1cc(-c2cccc3c2Sc2ccccc2S3)oc(N2CCOCC2)c1 + O=C(c1cc(Cc2n[nH]c(=O)c3ccccc23)ccc1F)N1CCN(C(=O)C2CC2)CC1 [Olaparib] (partner 8 µM)
relative viability (NCI-H1793; first compound 0.08 µM): 0.815 | relative viability (NCI-H1793; first compound 0.253 µM): 1.08 | relative viability (NCI-H1793; first compound 0.8 µM): 0.899 | relative viability (NCI-H1793; first compound 2.53 µM): 0.721 | relative viability (NCI-H1793; first compound 8 µM): 0.63 | relative viability (NCI-H1437; first compound 0.08 µM): 0.618 | relative viability (NCI-H1437; first compound 0.253 µM): 0.785 | relative viability (NCI-H1437; first compound 0.8 µM): 0.684 | relative viability (NCI-H1437; first compound 2.53 µM): 0.615 | relative viability (NCI-H1437; first compound 8 µM): 0.541 | relative viability (HCC-366; first compound 0.08 µM): 0.421 | relative viability (HCC-366; first compound 0.253 µM): 0.507 | relative viability (HCC-366; first compound 0.8 µM): 0.406 | relative viability (HCC-366; first compound 2.53 µM): 0.483 | relative viability (HCC-366; first compound 8 µM): 0.357 | relative viability (NCI-H1650; first compound 0.08 µM): 0.702 | relative viability (NCI-H1650; first compound 0.253 µM): 0.8 | relative viability (NCI-H1650; first compound 0.8 µM): 0.53 | relative viability (NCI-H1650; first compound 2.53 µM): 0.782 | relative viability (NCI-H1650; first compound 8 µM): 0.734 | relative viability (NCI-H460; first compound 0.08 µM): 0.513 | relative viability (NCI-H460; first compound 0.253 µM): 0.343 | relative viability (NCI-H460; first compound 0.8 µM): 0.454 | relative viability (NCI-H460; first compound 2.53 µM): 0.451 | relative viability (NCI-H460; first compound 8 µM): 0.542 | relative viability (NCI-H2023; first compound 0.08 µM): 0.445 | relative viability (NCI-H2023; first compound 0.253 µM): 0.513 | relative viability (NCI-H2023; first compound 0.8 µM): 0.435 | relative viability (NCI-H2023; first compound 2.53 µM): 0.345 | relative viability (NCI-H2023; first compound 8 µM): 0.348 | relative viability (LU99A; first compound 0.08 µM): 0.251 | relative viability (LU99A; first compound 0.253 µM): 0.298 | relative viability (LU99A; first compound 0.8 µM): 0.296 | relative viability (LU99A; first compound 2.53 µM): 0.245 | relative viability (LU99A; first compound 8 µM): 0.214 | relative viability (NCI-H441; first compound 0.08 µM): 0.603 | relative viability (NCI-H441; first compound 0.253 µM): 0.708 | relative viability (NCI-H441; first compound 0.8 µM): 0.518 | relative viability (NCI-H441; first compound 2.53 µM): 0.461 | relative viability (NCI-H441; first compound 8 µM): 0.432 | relative viability (NCI-H1355; first compound 0.08 µM): 0.801 | relative viability (NCI-H1355; first compound 0.253 µM): 0.916 | relative viability (NCI-H1355; first compound 0.8 µM): 0.65 | relative viability (NCI-H1355; first compound 2.53 µM): 0.717 | relative viability (NCI-H1355; first compound 8 µM): 0.573 | relative viability (LOU-NH91; first compound 0.08 µM): 0.875 | relative viability (LOU-NH91; first compound 0.253 µM): 0.945 | relative viability (LOU-NH91; first compound 0.8 µM): 0.866 | relative viability (LOU-NH91; first compound 2.53 µM): 0.863 | relative viability (LOU-NH91; first compound 8 µM): 0.917 | relative viability (NCI-H838; first compound 0.08 µM): 0.9 | relative viability (NCI-H838; first compound 0.253 µM): 1.1 | relative viability (NCI-H838; first compound 0.8 µM): 0.752 | relative viability (NCI-H838; first compound 2.53 µM): 0.715 | relative viability (NCI-H838; first compound 8 µM): 0.546 | relative viability (COR-L23; first compound 0.08 µM): 0.35 | relative viability (COR-L23; first compound 0.253 µM): 0.395 | relative viability (COR-L23; first compound 0.8 µM): 0.351 | relative viability (COR-L23; first compound 2.53 µM): 0.362 | relative viability (COR-L23; first compound 8 µM): 0.351 | relative viability (NCI-H1651; first compound 0.08 µM): 0.166 | relative viability (NCI-H1651; first compound 0.253 µM): 0.175 | relative viability (NCI-H1651; first compound 0.8 µM): 0.184 | relative viability (NCI-H1651; first compound 2.53 µM): 0.168 | relative viability (NCI-H1651; first compound 8 µM): 0.176 | relative viability (NCI-H1734; first compound 0.08 µM): 0.628 | relative viability (NCI-H1734; first compound 0.253 µM): 0.659 | relative viability (NCI-H1734; first compound 0.8 µM): 0.713 | relative viability (NCI-H1734; first compound 8 µM): 0.647 | relative viability (NCI-H1975; first compound 0.08 µM): 0.831 | relative viability (NCI-H1975; first compound 0.253 µM): 0.94 | relative viability (NCI-H1975; first compound 0.8 µM): 0.737 | relative viability (NCI-H1975; first compound 2.53 µM): 0.666 | relative viability (NCI-H1975; first compound 8 µM): 0.598 | relative viability (NCI-H358; first compound 0.08 µM): 0.636 | relative viability (NCI-H358; first compound 0.253 µM): 0.676 | relative viability (NCI-H358; first compound 0.8 µM): 0.589 | relative viability (NCI-H358; first compound 2.53 µM): 0.64 | relative viability (NCI-H358; first compound 8 µM): 0.719 | relative viability (BEN; first compound 0.08 µM): 0.998 | relative viability (BEN; first compound 0.253 µM): 1.15 | relative viability (BEN; first compound 0.8 µM): 1.04 | relative viability (BEN; first compound 2.53 µM): 0.956 | relative viability (BEN; first compound 8 µM): 1.07 | relative viability (CAL-12T; first compound 0.08 µM): 0.77 | relative viability (CAL-12T; first compound 0.253 µM): 0.738 | relative viability (CAL-12T; first compound 0.8 µM): 0.759 | relative viability (CAL-12T; first compound 2.53 µM): 0.731 | relative viability (CAL-12T; first compound 8 µM): 0.402 | relative viability (NCI-H2342; first compound 0.08 µM): 0.52 | relative viability (NCI-H2342; first compound 0.253 µM): 0.419 | relative viability (NCI-H2342; first compound 0.8 µM): 0.476 | relative viability (NCI-H2342; first compound 2.53 µM): 0.471 | relative viability (NCI-H2342; first compound 8 µM): 0.423 | relative viability (NCI-H2085; first compound 0.08 µM): 0.771 | relative viability (NCI-H2085; first compound 0.253 µM): 0.846 | relative viability (NCI-H2085; first compound 0.8 µM): 0.857 | relative viability (NCI-H2085; first compound 2.53 µM): 0.762 | relative viability (NCI-H2085; first compound 8 µM): 0.654 | relative viability (SK-LU-1; first compound 0.08 µM): 0.582 | relative viability (SK-LU-1; first compound 0.253 µM): 0.713 | relative viability (SK-LU-1; first compound 0.8 µM): 0.524 | relative viability (SK-LU-1; first compound 2.53 µM): 0.503 | relative viability (SK-LU-1; first compound 8 µM): 0.463

— the supplement of paper PMC10307832
